The source made the active and inactive calls.
Columns and labels:
[1] = target: T1, Bone morphogenetic protein receptor type-2 (Homo sapiens, UniProt Q13873)
T1 sequence (Q13873 whole entry): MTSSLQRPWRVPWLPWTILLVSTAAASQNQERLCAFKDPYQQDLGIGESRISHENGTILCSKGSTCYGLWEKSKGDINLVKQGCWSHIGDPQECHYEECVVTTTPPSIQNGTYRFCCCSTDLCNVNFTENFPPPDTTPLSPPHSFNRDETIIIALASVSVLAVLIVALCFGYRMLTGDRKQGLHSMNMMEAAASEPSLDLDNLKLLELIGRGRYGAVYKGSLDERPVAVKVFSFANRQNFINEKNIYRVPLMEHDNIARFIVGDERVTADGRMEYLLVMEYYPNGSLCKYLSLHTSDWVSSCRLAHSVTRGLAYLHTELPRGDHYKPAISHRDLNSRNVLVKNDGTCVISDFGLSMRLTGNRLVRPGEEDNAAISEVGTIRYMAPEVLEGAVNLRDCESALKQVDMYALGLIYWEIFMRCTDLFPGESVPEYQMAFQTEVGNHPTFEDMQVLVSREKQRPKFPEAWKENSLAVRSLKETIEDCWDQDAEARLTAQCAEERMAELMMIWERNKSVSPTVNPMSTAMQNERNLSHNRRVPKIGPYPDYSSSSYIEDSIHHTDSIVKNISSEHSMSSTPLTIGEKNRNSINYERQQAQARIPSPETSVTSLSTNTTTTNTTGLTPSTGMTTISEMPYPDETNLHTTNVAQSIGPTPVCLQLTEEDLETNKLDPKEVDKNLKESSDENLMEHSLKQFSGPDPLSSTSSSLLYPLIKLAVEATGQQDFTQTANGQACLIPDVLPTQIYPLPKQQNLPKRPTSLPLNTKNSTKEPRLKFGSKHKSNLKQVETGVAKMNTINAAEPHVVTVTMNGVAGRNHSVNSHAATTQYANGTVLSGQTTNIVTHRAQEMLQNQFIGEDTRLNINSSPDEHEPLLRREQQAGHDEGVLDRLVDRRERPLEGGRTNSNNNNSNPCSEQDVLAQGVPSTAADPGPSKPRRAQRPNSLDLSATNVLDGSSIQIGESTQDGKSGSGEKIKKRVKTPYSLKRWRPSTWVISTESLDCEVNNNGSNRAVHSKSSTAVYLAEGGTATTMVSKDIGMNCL

[2] = target: T2, Glycogen phosphorylase, brain form (Homo sapiens, UniProt P11216)
T2 sequence (P11216 whole entry): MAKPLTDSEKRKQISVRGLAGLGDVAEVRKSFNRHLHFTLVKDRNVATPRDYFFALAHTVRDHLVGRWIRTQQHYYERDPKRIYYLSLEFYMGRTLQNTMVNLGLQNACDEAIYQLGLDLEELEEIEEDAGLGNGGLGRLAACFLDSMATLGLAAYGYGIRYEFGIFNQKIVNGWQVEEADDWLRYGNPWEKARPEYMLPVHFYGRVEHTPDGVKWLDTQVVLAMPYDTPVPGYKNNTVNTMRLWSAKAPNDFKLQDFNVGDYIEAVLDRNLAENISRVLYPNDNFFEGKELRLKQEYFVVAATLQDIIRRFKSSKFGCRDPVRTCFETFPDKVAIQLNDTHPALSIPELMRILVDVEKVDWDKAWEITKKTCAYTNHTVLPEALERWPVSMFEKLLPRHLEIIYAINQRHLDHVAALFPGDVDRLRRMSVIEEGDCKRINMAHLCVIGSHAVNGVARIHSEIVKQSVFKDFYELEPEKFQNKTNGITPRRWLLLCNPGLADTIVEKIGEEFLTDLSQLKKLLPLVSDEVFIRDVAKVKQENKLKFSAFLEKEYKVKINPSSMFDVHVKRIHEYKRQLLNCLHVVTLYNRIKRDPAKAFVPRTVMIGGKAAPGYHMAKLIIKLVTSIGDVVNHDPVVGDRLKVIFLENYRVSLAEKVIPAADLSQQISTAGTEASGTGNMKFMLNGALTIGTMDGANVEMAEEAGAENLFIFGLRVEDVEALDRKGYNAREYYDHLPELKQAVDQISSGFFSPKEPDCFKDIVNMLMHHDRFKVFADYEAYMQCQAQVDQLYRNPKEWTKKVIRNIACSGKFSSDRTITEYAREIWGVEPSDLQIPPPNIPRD

Activated CDC42 kinase 1 = Activated CDC42 kinase 1 (Homo sapiens, UniProt Q07912)
Chain of Activated CDC42 kinase 1 (Q07912 whole entry): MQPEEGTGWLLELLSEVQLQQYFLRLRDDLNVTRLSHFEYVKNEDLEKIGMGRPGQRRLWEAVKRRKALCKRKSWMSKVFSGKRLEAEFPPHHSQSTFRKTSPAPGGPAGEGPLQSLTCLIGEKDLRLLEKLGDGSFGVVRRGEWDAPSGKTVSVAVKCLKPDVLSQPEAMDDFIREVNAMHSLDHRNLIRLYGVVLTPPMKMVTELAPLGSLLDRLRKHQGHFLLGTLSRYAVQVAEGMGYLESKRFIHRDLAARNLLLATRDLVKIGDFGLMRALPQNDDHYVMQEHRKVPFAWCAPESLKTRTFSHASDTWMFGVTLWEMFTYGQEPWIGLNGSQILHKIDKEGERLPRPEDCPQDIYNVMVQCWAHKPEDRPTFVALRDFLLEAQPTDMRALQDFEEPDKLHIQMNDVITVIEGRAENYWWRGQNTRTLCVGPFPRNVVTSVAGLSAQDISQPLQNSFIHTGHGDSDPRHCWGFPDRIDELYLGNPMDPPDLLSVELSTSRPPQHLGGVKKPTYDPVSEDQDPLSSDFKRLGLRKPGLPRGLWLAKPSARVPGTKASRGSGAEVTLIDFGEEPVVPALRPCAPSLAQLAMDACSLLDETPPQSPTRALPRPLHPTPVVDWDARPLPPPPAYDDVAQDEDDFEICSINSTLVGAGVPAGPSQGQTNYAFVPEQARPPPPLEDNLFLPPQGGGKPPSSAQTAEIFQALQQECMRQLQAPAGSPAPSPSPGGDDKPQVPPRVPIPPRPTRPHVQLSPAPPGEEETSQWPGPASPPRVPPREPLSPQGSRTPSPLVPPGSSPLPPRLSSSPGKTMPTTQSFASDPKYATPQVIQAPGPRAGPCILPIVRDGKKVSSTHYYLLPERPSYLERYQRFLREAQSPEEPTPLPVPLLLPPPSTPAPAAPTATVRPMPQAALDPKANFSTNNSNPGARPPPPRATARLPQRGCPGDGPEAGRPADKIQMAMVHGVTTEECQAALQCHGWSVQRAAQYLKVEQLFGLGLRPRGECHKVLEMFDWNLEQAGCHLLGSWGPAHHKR

[3] = target: U5 small nuclear ribonucleoprotein 200 kDa helicase (Homo sapiens, UniProt O75643)
Chain of U5 small nuclear ribonucleoprotein 200 kDa helicase (O75643 whole entry): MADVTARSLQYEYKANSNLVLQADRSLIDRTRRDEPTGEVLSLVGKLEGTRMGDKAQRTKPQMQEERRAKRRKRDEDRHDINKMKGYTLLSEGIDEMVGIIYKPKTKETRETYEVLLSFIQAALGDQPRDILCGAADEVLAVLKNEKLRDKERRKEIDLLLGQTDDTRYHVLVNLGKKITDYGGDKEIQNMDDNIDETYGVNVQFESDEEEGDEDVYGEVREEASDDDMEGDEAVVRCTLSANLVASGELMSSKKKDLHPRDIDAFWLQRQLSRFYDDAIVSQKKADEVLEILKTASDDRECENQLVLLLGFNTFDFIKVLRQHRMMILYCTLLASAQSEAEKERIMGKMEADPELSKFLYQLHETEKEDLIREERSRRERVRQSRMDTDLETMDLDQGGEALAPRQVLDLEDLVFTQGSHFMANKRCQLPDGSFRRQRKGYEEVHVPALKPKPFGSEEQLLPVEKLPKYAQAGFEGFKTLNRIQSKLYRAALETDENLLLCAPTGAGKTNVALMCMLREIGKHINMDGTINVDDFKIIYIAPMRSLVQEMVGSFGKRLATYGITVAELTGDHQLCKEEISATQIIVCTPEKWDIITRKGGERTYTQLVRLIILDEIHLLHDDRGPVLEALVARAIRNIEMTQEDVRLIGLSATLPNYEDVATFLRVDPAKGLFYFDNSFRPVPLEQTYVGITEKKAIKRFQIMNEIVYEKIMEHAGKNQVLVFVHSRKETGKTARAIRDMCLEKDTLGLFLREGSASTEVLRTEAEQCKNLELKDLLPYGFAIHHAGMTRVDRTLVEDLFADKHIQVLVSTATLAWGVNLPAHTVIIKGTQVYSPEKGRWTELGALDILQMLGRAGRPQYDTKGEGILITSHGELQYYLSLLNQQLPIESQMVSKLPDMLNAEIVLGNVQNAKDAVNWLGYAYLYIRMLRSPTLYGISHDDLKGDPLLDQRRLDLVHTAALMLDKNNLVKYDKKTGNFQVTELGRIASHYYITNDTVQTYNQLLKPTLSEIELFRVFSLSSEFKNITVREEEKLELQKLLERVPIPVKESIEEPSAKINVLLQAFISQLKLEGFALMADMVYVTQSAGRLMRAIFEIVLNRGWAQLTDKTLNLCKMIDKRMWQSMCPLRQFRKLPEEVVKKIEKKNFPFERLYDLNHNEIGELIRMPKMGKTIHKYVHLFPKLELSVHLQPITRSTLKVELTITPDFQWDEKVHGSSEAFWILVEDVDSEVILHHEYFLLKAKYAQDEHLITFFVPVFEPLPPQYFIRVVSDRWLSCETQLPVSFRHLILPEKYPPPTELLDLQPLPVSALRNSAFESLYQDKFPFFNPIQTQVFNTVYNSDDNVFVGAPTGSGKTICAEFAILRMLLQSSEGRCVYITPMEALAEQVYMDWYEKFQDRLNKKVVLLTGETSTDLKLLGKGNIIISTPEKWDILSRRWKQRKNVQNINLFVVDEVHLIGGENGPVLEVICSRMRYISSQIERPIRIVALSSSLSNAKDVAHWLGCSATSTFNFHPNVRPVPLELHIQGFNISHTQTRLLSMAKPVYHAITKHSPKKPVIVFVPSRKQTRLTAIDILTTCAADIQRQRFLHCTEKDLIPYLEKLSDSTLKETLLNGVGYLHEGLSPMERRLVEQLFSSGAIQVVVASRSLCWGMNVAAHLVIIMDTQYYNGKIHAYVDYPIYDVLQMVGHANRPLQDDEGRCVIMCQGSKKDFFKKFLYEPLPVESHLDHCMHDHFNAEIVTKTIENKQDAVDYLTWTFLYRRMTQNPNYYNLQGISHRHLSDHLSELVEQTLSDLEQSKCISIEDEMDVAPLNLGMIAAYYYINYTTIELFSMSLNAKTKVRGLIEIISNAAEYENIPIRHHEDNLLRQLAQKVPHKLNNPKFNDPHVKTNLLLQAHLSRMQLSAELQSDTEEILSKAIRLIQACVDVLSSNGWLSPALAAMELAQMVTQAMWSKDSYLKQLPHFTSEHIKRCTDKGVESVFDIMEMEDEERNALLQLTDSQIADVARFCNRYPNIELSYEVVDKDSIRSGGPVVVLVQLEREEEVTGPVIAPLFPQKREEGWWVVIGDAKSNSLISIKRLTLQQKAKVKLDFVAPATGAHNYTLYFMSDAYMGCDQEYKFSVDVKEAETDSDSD

[4] = target: 26S proteasome regulatory subunit 6B (Homo sapiens, UniProt P43686)
Chain of 26S proteasome regulatory subunit 6B (P43686 whole entry): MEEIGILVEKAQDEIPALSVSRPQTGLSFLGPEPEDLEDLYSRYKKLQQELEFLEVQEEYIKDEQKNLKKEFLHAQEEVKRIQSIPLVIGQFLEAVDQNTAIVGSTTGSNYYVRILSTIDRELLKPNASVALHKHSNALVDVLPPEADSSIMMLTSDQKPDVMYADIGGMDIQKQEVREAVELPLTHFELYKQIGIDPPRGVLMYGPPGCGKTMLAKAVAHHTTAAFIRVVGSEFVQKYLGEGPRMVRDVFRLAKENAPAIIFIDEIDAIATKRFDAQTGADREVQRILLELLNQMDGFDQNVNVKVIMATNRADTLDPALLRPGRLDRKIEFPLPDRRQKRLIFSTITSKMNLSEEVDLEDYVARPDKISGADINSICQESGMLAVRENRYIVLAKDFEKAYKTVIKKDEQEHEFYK

ADP/ATP translocase 2 = target: T3, ADP/ATP translocase 2 (Homo sapiens, UniProt P05141)
T3 sequence (P05141 whole entry): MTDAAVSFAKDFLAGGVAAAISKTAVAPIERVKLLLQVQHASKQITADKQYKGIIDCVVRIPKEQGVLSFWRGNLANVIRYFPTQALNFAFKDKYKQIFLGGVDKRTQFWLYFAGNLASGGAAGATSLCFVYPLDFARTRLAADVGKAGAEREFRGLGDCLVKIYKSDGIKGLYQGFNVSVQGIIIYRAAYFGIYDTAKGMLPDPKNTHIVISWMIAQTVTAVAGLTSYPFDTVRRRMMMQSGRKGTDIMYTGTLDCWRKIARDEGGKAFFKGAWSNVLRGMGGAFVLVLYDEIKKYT

[5] = target: Mitogen-activated protein kinase 10 (Homo sapiens, UniProt P53779)
Chain of Mitogen-activated protein kinase 10 (P53779 whole entry): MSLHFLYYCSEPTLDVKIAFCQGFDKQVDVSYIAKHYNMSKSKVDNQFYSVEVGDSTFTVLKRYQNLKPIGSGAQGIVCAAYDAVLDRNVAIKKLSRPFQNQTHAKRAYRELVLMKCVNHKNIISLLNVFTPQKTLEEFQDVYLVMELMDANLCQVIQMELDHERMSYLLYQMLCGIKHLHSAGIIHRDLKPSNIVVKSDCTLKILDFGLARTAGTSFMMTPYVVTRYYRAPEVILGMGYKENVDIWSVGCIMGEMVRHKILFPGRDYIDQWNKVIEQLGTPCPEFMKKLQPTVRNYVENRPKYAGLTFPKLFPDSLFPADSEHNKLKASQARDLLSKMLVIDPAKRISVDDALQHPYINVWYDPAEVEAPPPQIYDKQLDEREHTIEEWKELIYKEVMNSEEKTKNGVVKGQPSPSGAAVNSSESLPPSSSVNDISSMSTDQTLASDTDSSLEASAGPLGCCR

[6] = target: Chromodomain-helicase-DNA-binding protein 4 (Homo sapiens, UniProt Q14839)
Also: in the data inactive means no Kd found up to 30 µM.

Row | Kd [1] | Kd [2] | Kd (Activated CDC42 kinase 1) | Kd [3] | Kd [4] | Kd (ADP/ATP translocase 2) | Kd [5] | Kd [6] | Structure (SMILES)
1 | > 30 µM (inactive) | > 30 µM (inactive) | > 30 µM (inactive) | > 30 µM (inactive) | > 30 µM (inactive) | > 30 µM (inactive) | > 30 µM (inactive) | > 30 µM (inactive) | CNS(=O)(=O)Nc1nccc(Cc2c(C)c3ccc(Oc4ncccn4)cc3oc2=O)c1F [AVUTOMETINIB]
2 | > 30 µM (inactive) | > 30 µM (inactive) | > 30 µM (inactive) | > 30 µM (inactive) | > 30 µM (inactive) | > 30 µM (inactive) | > 30 µM (inactive) | > 30 µM (inactive) | CCCS(=O)(=O)Nc1ccc(F)c(C(=O)c2c[nH]c3ncc(-c4ccc(Cl)cc4)cc23)c1F [VEMURAFENIB]
3 | > 30 µM (inactive) | > 30 µM (inactive) | > 30 µM (inactive) | > 30 µM (inactive) | > 30 µM (inactive) | > 30 µM (inactive) | > 30 µM (inactive) | > 30 µM (inactive) | Cc1cc2c(F)c(Oc3ncnn4cc(OC[C@@H](C)OC(=O)[C@H](C)N)c(C)c34)ccc2[nH]1 [BRIVANIB ALANINATE]
4 | > 30 µM (inactive) | > 30 µM (inactive) | 0.005 µM (active) | > 30 µM (inactive) | > 30 µM (inactive) | > 30 µM (inactive) | > 30 µM (inactive) | > 30 µM (inactive) | COc1cc(N2CCC(N3CCN(C)CC3)CC2)ccc1Nc1ncnc(Nc2ccccc2S(=O)(=O)C(C)C)n1 [ASP-3026]
5 | > 30 µM (inactive) | > 30 µM (inactive) | > 30 µM (inactive) | > 30 µM (inactive) | > 30 µM (inactive) | > 30 µM (inactive) | > 30 µM (inactive) | > 30 µM (inactive) | CCn1c(=O)c(-c2cc[nH]n2)cc2c(C)nc(N)nc21 [VOXTALISIB]
6 | > 30 µM (inactive) | > 30 µM (inactive) | 1.01 µM (active) | > 30 µM (inactive) | > 30 µM (inactive) | > 30 µM (inactive) | > 30 µM (inactive) | > 30 µM (inactive) | CCN1CCN(Cc2ccc(-c3cc4c(N[C@H](C)c5ccccc5)ncnc4[nH]3)cc2)CC1 [AEE-788]
7 | > 30 µM (inactive) | > 30 µM (inactive) | > 30 µM (inactive) |  | > 30 µM (inactive) | > 30 µM (inactive) | > 30 µM (inactive) | > 30 µM (inactive) | Cn1ncc(Cl)c1-c1cc(C(=O)N[C@H](CN)Cc2cccc(F)c2)sc1Cl [AFURESERTIB]
8 | > 30 µM (inactive) | > 30 µM (inactive) | > 30 µM (inactive) | > 30 µM (inactive) | > 30 µM (inactive) | > 30 µM (inactive) | > 30 µM (inactive) |  | CNC(=O)c1ccc(C)c(-n2c(C)cc(OCc3ccc(F)cc3F)c(Br)c2=O)c1 [PH-797804]
9 | > 30 µM (inactive) | > 30 µM (inactive) | > 30 µM (inactive) | > 30 µM (inactive) | > 30 µM (inactive) | > 30 µM (inactive) | > 30 µM (inactive) |  | CNC(=O)c1ccc(-c2cnc3ncc(Cc4ccc5ncccc5c4)n3n2)cc1F [CAPMATINIB]

The next lines start with the compound.

Row | Structure (SMILES) | Kd [1] | Kd [2] | Kd (Activated CDC42 kinase 1) | Kd [3] | Kd [4] | Kd (ADP/ATP translocase 2) | Kd [5] | Kd [6]
10 | C[C@@H](Nc1cc(F)cc(F)c1)c1cc(C(=O)N(C)C)cc2c(=O)cc(N3CCOCC3)oc12 [AZD-8186] | > 30 µM (inactive) | > 30 µM (inactive) | > 30 µM (inactive) | > 30 µM (inactive) | > 30 µM (inactive) | > 30 µM (inactive) | > 30 µM (inactive) | 
11 | Cc1cc([C@@H](C)Nc2ccccc2C(=O)O)c2nc(N3CCOCC3)cc(=O)n2c1 [AZD-6482] | > 30 µM (inactive) | > 30 µM (inactive) | > 30 µM (inactive) | > 30 µM (inactive) | > 30 µM (inactive) | > 30 µM (inactive) | > 30 µM (inactive) | > 30 µM (inactive)
12 | CCS(=O)(=O)N1CC(CC#N)(n2cc(-c3ncnc4[nH]ccc34)cn2)C1 [BARICITINIB] | > 30 µM (inactive) | > 30 µM (inactive) | > 30 µM (inactive) | > 30 µM (inactive) | > 30 µM (inactive) | > 30 µM (inactive) | > 30 µM (inactive) | > 30 µM (inactive)
13 | CN1N=C(N)c2cn([C@@H]3O[C@H](COP(=O)(O)O)[C@@H](O)[C@H]3O)c3ncnc1c23 [TRICIRIBINE PHOSPHATE] | > 30 µM (inactive) | > 30 µM (inactive) | > 30 µM (inactive) | > 30 µM (inactive) | > 30 µM (inactive) | > 30 µM (inactive) | > 30 µM (inactive) | > 30 µM (inactive)
14 | CNC(=O)c1cc(Oc2ccc(NC(=O)Nc3ccc(Cl)c(C(F)(F)F)c3)c(F)c2)ccn1 [REGORAFENIB] | > 30 µM (inactive) | > 30 µM (inactive) | > 30 µM (inactive) | > 30 µM (inactive) | > 30 µM (inactive) | > 30 µM (inactive) | > 30 µM (inactive) | > 30 µM (inactive)
15 | O=C(Nc1ccc(-c2ccnc(Nc3ccc(N4CCOCC4)cc3)n2)cc1)C1CCCN1 (stereo not given) [XL-019] | > 30 µM (inactive) | > 30 µM (inactive) | > 30 µM (inactive) | > 30 µM (inactive) | > 30 µM (inactive) | > 30 µM (inactive) | > 30 µM (inactive) | > 30 µM (inactive)
16 | Cc1ccc(S(=O)(=O)Nc2nc3ccccc3nc2Nc2ccc3nsnc3c2)cc1 | > 30 µM (inactive) | > 30 µM (inactive) | > 30 µM (inactive) | > 30 µM (inactive) | > 30 µM (inactive) | > 30 µM (inactive) | > 30 µM (inactive) | > 30 µM (inactive)
17 | C=CC(=O)N1CCC(Oc2cc3c(Nc4ccc(Cl)c(Cl)c4F)ncnc3cc2OC)CC1 [POZIOTINIB] | > 30 µM (inactive) | > 30 µM (inactive) | > 30 µM (inactive) | > 30 µM (inactive) | > 30 µM (inactive) | > 30 µM (inactive) | > 30 µM (inactive) | > 30 µM (inactive)
18 | CC(=O)Nc1cccc(-n2c(=O)n(C3CC3)c(=O)c3c(Nc4ccc(I)cc4F)n(C)c(=O)c(C)c32)c1 [TRAMETINIB] | > 30 µM (inactive) | > 30 µM (inactive) | > 30 µM (inactive) | > 30 µM (inactive) | > 30 µM (inactive) | > 30 µM (inactive) | > 30 µM (inactive) | > 30 µM (inactive)

— ChEMBL document CHEMBL3991601, “The target landscape of clinical kinase drugs” (Science, 2017)
